This note sets out measurements from patent US20210009575A1, “HYDROXYISOXAZOLINES AND DERIVATIVES THEREOF” (Bayer Aktiengesellschaft, priority 2017, published 2021).

The test system of data set [1] is Colletotrichum lindemuthianum. As to the kind of experiment: Colletotrichum lindemuthianum in vitro cell test. To be noted: 144 h, read-out: efficacy. Format: cell-based.
The subject of another data set is Puccinia recondita. The experiment in a line: In vivo preventive test on Puccinia recondita (brown rust on wheat). To be noted: 264 h, read-out: efficacy.
For data set [2] the following is noted: for LogP: method [a]: LC-UV, acidic range, Table 1.
Description: (§1) Measurement of LogP values was performed according to EEC directive 79/831 Annex V.A8 by HPLC (High Performance Liquid Chromatography) on reversed phase columns with the following methods:
(§2) [a] LogP value is determined by measurement of LC-UV, in anacidic range, with 0.1% formic acid in water and acetonitrile as eluent (linear gradient from 10% acetonitrile to 95% acetonitrile). [b] LogP value is determined by measurement of LC-UV, in a neutral range, with 0.001 molar ammonium acetate solution in water and acetonitrile as eluent (linear gradient from 10% acetonitrile to 95% acetonitrile). [c] LogP value is determined by measurement of LC-UV, in an acidic range, with 0.1% phosphoric acid and acetonitrile as eluent (linear gradient from 10% acetonitrile to 95% acetonitrile).
(§3) If more than one LogP value is available within the same method, all the values are given and separated by “+”.
The mark [3] stands for this setting: 20 ppm of active ingredient, inhibition of fungal growth, 6 days incubation, liquid culture.
[4] abbreviates: 500 ppm of active ingredient, wheat sprayed 24 hours before contamination, evaluated 11 days after the inoculation.

Like-named read-outs stand apart in the source and are kept apart here.

Description for physchem: as §1, §2, §3

The compound `CN(C(=O)c1ccc(C(=O)/C=C(\O)C(F)(F)F)cc1)c1ccccc1` [Compound 1b-01] had a chromatographic logP in “physchem” of 2.17.

Compound `CCc1noc(-c2ccc(C(=O)/C=C(\O)C(F)(F)F)cc2)n1` [Compound 1b-02, 1-[4-(3-Ethyl-1,2,4-oxadiazol-5-yl)phenyl]-4,4,4-trifluoro-3-hydroxy-but-2-en-1-one] showed a chromatographic logP in the data set “physchem” of 2.43.

`COC(=O)c1ccc(C(=O)CC(=O)C(F)(F)Cl)cc1` [Compound 1b-04, methyl 4-(4-chloro-4,4-difluoro-3-oxobutanoyl)benzoate] came in with a chromatographic logP in “physchem” of 2.11.

`Cc1ccc(C)n1-c1ccc(C(=O)CC(=O)C(F)(F)F)cc1` [Compound 1b-35, 1-[4-(2,5-dimethyl-1H-pyrrol-1-yl)phenyl]-4,4,4-trifluoro-1,3-butanedione] yielded a chromatographic logP in the data set “physchem” of 3.21.

With `OC1(C(F)(F)F)CC(c2ccc(C#CC3CC3)cc2)=NO1` (stereo not shown) [Ia-031, 3-[4-(cvclopropvlethvnvl)phenyl]-5-(trifluoromethyl)-4,5-dihydro-1,2-oxazol-5-ol], in data set [1] (setting [3]), the inhibition of growth at 20 ppm is 90 to 100%. In the data set “physchem”, this compound returned a chromatographic logP of 3.41. Also, in the data set with Puccinia recondita (setting [4]), the pest or weed control at 500 ppm lay in the range of 80 to 89%.

As to `CON=C(C)c1ccc(C2=NOC(O)(C(F)(F)F)C2)cc1` (stereo not shown) [Ia-037, 3-[4-(N-methoxvethanimidovl)phenyl]-5-(trifluoromethyl)-4,5-dihydro-1,2-oxazol-5-ol], the inhibition of growth at 20 ppm in data set [1] (setting [3]) was in the range of 90 to 100%. In “physchem”, this compound registered a chromatographic logP of 2.98.

For `CC(=O)c1ccc(C2=NOC(O)(C(F)(F)F)C2)cc1` (stereo not shown) [Ia-038, 1-{4-[5-hydroxy-5-(trifluoromethyl)-4,5-dihydro-1,2-oxazol-3-yl]phenyl}ethanone], in data set [1] (setting [3]), the inhibition of growth at 20 ppm fell in the range of 90 to 100%. The chromatographic logP in “physchem” was 2.11. In the data set with Puccinia recondita (setting [4]), the pest or weed control at 500 ppm lay in the range of 90 to 100%.

In the case of `CC(O)c1ccc(C2=NOC(O)(C(F)(F)F)C2)cc1` (stereo not shown) [Ia-044, 3-[4-(1-hydroxyethyl)phenyl]-5-(trifluoromethyl)-4,5-dihydro-1,2-oxazol-5-ol], the inhibition of growth at 20 ppm in data set [1] (setting [3]) was 80 to 89%. The same compound displayed a chromatographic logP in the data set “physchem” of 1.78. The pest or weed control at 500 ppm with Puccinia recondita (setting [4]) lay within 90 to 100%.

For the compound `OC1(C(F)(F)F)CC(c2ccc(-c3ccc(F)cc3)cc2)=NO1` (stereo not shown) [Ia-075, 3-(4′-fluoro[biphenyl]-4-yl)-5-(trifluoromethyl)-4,5-dihydro-1,2-oxazol-5-ol], in data set [1] (setting [3]), the inhibition of growth at 20 ppm lay within 90 to 100%. This compound yielded a chromatographic logP in “physchem” of 3.46. Moreover, the pest or weed control at 500 ppm with Puccinia recondita (setting [4]) lay within 80 to 89%.

`OC1(C(F)(F)F)CC(c2ccc(-c3cncnc3)cc2)=NO1` (stereo not shown) [Ia-087, 3-[4-(pyrimidin-5-yl)phenyl]-5-(trifluoromethyl)-4,5-dihydro-1,2-oxazol-5-ol]: the inhibition of growth at 20 ppm in data set [1] (setting [3]) lay in the range of 90 to 100%. The chromatographic logP in the data set “physchem” stood at 1.86. Besides, the pest or weed control at 500 ppm with Puccinia recondita (setting [4]) was 90 to 100%.

As to `CCc1noc(-c2ccc(C3=NOC(O)(C(F)(F)F)C3)cc2)n1` (stereo not shown) [Ia-093, 3-[4-(3-Ethyl-1,2,4-oxadiazol-5-yl)phenyl]-5-(trifluoromethyl)-4H-isoxazol-5-ol], the inhibition of growth at 20 ppm in data set [1] (setting [3]) lay in the range of 90 to 100%. The compound further yielded a chromatographic logP in “physchem” of 2.88. In addition, in the data set with Puccinia recondita (setting [4]), the pest or weed control at 500 ppm was in the range of 90 to 100%.

In the case of `CCc1noc(-c2ccc(C3=NOC(OC(C)=O)(C(F)(F)F)C3)cc2)n1` (stereo not shown) [Ia-095, [3-[4-(3-Ethyl-1,2,4-oxadiazol-5-yl)phenyl]-5-(trifluoromethyl)-4H-isoxazol-5-yl]acetate], the LogP in data set [2] is 3.68^[a].

Turning to `OC1(C(F)(F)F)CC(c2ccc(-c3ccc4sccc4c3)cc2)=NO1` (stereo not shown) [Ia-108], the LogP in data set [2] was 3.94^[a].

`NCc1ccc(C2=NOC(O)(C(F)(F)F)C2)cc1` (stereo not shown) [Ia-112, 3-(4-Aminomethyl-phenyl)-5-trifluoromethyl-4,5-dihydro-isoxazol-5-ol] gave a chromatographic logP in the data set “physchem” of 0.63. In addition, in the data set with Puccinia recondita (setting [4]), the pest or weed control at 500 ppm was in the range of 90 to 100%.

`Nc1ccc(C2=NOC(O)(C(F)(F)F)C2)cc1` (stereo not shown) [Ia-114, 3-(4-aminophenyl)-4,5-dihydro-5-(trifluoromethyl)-5-isoxazolol]: the inhibition of growth at 20 ppm in data set [1] (setting [3]) was 80 to 89%. In the data set “physchem”, the chromatographic logP turned out to be 1.49. In addition, the pest or weed control at 500 ppm in the data set on Puccinia recondita (setting [4]) lay in the range of 90 to 100%.

`O=C(Nc1ccc(F)cc1F)c1ccc(C2=NOC(O)(C(F)(F)Cl)C2)cc1` (stereo not shown) [Ib-030, 4-{5-[chloro(difluoro)methyl]-5-hydroxy-4,5-dihydro-1,2-oxazol-3-vl}-N-(2,4-difluorophenyl)benzamide] yielded a chromatographic logP in the data set “physchem” of 2.76.

`O=C(O)c1ccc(C2=NOC(O)(C(F)(F)Cl)C2)cc1` (stereo not shown) [Ib-048, 4-{5-[chloro(difluoro)methyl]-5-hydroxy-4,5-dihydro-1,2-oxazol-3-yl}benzoic acid] registered a chromatographic logP in “physchem” of 1.84.

On to `COC(=O)c1ccc(C2=NOC(O)(C(F)(F)Cl)C2)cc1` (stereo not shown) [Ib-049, methyl 4-{5-[chloro(difluoro)methyl]-5-hydroxy-4,5-dihydro-1,2-oxazol-3-yl}benzoate], for which, in the data set “physchem”, the chromatographic logP was found to be 2.55.

Regarding `CN(C)C(=O)Oc1ccc(C2=NOC(O)(C(F)(F)Cl)C2)cc1` (stereo not shown) [Ib-095, 4-{5-[Chloro(difluoro)methyl]-5-hydroxy-4,5-dihydro-1,2-oxazol-3-yl}phenyl dimethylcarbamate], the inhibition of growth at 20 ppm in data set [1] fell in the range of 80 to 89%. In data set [2], this compound displayed a chromatographic logP of 2.35. For the same compound, the pest or weed control at 500 ppm in the data set with Puccinia recondita was in the range of 90 to 100%.
